Here are results for 72 compounds from patent US7847108B2, “Oxathiin carboxamides” (Bayer CropScience AG, priority 2003, dated 2010).

This data set in a line: logP determination by HPLC on reversed-phase column (EEC Directive 79/831 Annex V.A8). The data set is classed as physicochemical. The settings on record: for logP: Table 1 logP / m.p., C18, 43° C., acidic range (pH 2.3); for chromatographic logP: reversed-phase C18 HPLC column, pH 2.3, C18, 43° C. As for the experimental part: The given logP values were determined in accordance with EEC Directive 79/831 Annex V.A8 by HPLC (High Performance Liquid Chromatography) on a reversed-phase column (C 18). Temperature: 43° C. […] Calibration was carried out using unbranched alkan-2-ones (having 3 to 16 carbon atoms) with known logP values (determination of the logP values by the retention times using linear interpolation between two successive alkanones).

[1] abbreviates: precursors, read-out: HPLC: logP.

SMILES strings stand for the structures. Read-outs that look alike come from different tables or passages of the source.

`O=C(Nc1ccccc1-c1ccc(Cl)c(C(F)(F)F)c1)C1=C(C(F)(F)F)OCCS1` [Example 30] yielded a lipophilicity (logP) of 4.03.

Take `CC1COC(C(F)(F)F)=C(C(=O)O)S1` (stereo not drawn) [Example (II-2)]: the chromatographic logP under setting [1] was 1.69.

For `CC1COC(C(F)(F)F)=C(C(=O)Nc2ccccc2-c2ccc(Cl)c(C(F)(F)F)c2)S1` (stereo not drawn) [Example 7], the logP was found to be 4.30.

In turn, `O=C(Nc1ccccc1-c1cc(F)cc(F)c1)C1=C(C(F)(F)F)OCCS1` [Example 32] had a logP of 3.35.

As for `CON=Cc1ccc(-c2ccccc2NC(=O)C2=C(C(F)(F)F)OC(C)CS2)cc1` (stereo not drawn) [Example 62], the logP came to 3.81.

`CON=C(C)c1ccc(-c2ccccc2NC(=O)C2=C(C(F)(F)F)OCCS2)cc1F` [Example 46] yielded a lipophilicity (logP) of 3.69.

In turn, `CCCCCCCCC(C)c1ccccc1NC(=O)C1=C(C(F)(F)F)OCCS1` (stereo not drawn) [Example 42] displayed a logP of 5.48.

`CON=C(C)c1ccc(-c2ccccc2NC(=O)C2=C(C(F)(F)F)OCCS2)cc1Cl` [Example 45] returned a log partition coefficient (logP) of 3.45.

In turn, `CC(C)ON=Cc1ccc(-c2ccccc2NC(=O)C2=C(C(F)(F)F)OC(C)CS2)cc1` (stereo not drawn) [Example 64] gave a lipophilicity (logP) of 4.56.

`CON=C(N)c1ccc(-c2ccccc2NC(=O)C2=C(C(F)(F)F)OCCS2)cc1` [Example 41] registered a logP of 1.96.

In turn, `CC(C)CC(C)c1ccccc1NC(=O)C1=C(C(F)(F)F)OCC(C)S1` (stereo not drawn) [Example 3] came in with a logP of 4.24.

As for `CC(C)CCc1ccccc1NC(=O)C1=C(C(F)(F)F)OCCS1` [Example 102], the logP is recorded as 3.72.

The compound `CC1CC(C)(C)c2cccc(NC(=O)C3=C(C(F)F)OCCS3)c21` (stereo not drawn) [Example 83] returned a lipophilicity (logP) of 4.00.

Compound `CCCON=Cc1ccc(-c2ccccc2NC(=O)C2=C(C(F)F)OCCS2)cc1F` [Example 85] came in with a log partition coefficient (logP) of 4.52.

`C#CCON=C(C)c1ccc(-c2ccccc2NC(=O)C2=C(C(F)(F)F)OCCS2)cc1` [Example 40]: the logP worked out at 3.76.

As to `CC(C)=CC(C)c1ccccc1N` (stereo not drawn) [Example (III-2)], under setting [1], the chromatographic logP amounted to 1.19.

Take `O=C(Nc1ccccc1-c1ccc(I)cc1)C1=C(C(F)(F)F)OCCS1` [Example 33]: the lipophilicity (logP) turned out to be 3.85.

`CCC(C)C(C)c1ccccc1NC(=O)C1=C(C(F)(F)F)OCCS1` (stereo not drawn) [Example 94]: the log partition coefficient (logP) is 3.88.

Consider `CCC(CC(C)C)c1ccccc1NC(=O)C1=C(C(F)(F)F)OCCS1` (stereo not drawn) [Example 88], for which the lipophilicity (logP) is 4.30.

In turn, `CC1CSC(C(=O)Nc2ccc(F)cc2-c2ccc(Cl)c(Cl)c2)=C(C(F)(F)F)O1` (stereo not drawn) [Example 67] displayed a logP of 4.32.

In the case of `CC(=CC(C)C)c1ccccc1NC(=O)C1=C(C(F)(F)F)OCCS1` [Example 89], the logP came out at 4.32.

Compound `O=C(Nc1ccc(F)cc1-c1cc(F)cc(F)c1)C1=C(C(F)(F)F)OCCS1` [Example 73] had a log partition coefficient (logP) of 3.49.

For `CC1CSC(C(=O)O)=C(C(F)(F)F)O1` (stereo not drawn) [Example (II-3)], under setting [1], the chromatographic logP was found to be 1.72.

In turn, `CC(CC1CC1(Cl)Cl)c1ccccc1NC(=O)C1=C(C(F)(F)F)OCCS1` (stereo not drawn) [Example 55] displayed a logP of 3.92.

As for `CC1COC(C(F)(F)F)=C(C(=O)Nc2ccccc2C(C)CC(C)(C)C)S1` (stereo not drawn) [Example 4], the logP was determined as 4.53.

As to `CCCC(C)c1ccccc1NC(=O)C1=C(C(F)(F)F)OCCS1` (stereo not drawn) [Example 39], the log partition coefficient (logP) is 3.63.

`CCC(CC)c1ccccc1NC(=O)C1=C(C(F)(F)F)OCCS1` [Example 51]: the log partition coefficient (logP) was 3.62.

Consider `CC1(c2ccccc2NC(=O)C2=C(C(F)(F)F)OCCS2)CC1(Cl)Cl` (stereo not drawn) [Example 101], for which the lipophilicity (logP) turned out to be 3.66.

Take `CC(C)CC(C)c1cc(F)ccc1NC(=O)C1=C(C(F)(F)F)OCCS1` (stereo not drawn) [Example 50]: the lipophilicity (logP) is 3.94.

Turning to `CC1CSC(C(=O)Nc2ccccc2-c2ccc(C(F)(F)F)c(F)c2)=C(C(F)(F)F)O1` (stereo not drawn) [Example 71], the logP was found to be 4.08.

On to `CCC(Cl)CC(C)c1ccccc1N` (stereo not drawn) [Example (III-3), 2-(3-Chloro-1-methylpentyl)phenylamine], for which the chromatographic logP under setting [1] amounted to 2.3.

Turning to `Cc1cc(-c2ccccc2NC(=O)C2=C(C(F)(F)F)OCC(C)S2)ccc1F` (stereo not drawn) [Example 5], the logP was determined as 3.98.

As to `Cc1ccc(-c2ccccc2NC(=O)C2=C(C(F)(F)F)OC(C)CS2)cc1F` (stereo not drawn) [Example 69], the lipophilicity (logP) stood at 3.99.

`CC(=O)N(C(=O)C1=C(C(F)(F)F)OCCS1)c1ccccc1C(C)CC(C)C` (stereo not drawn) [Example 99] yielded a lipophilicity (logP) of 4.56.

`CC1CC(C)(C)c2cccc(NC(=O)C3=C(C(F)(F)F)OCCS3)c21` (stereo not drawn) [Example 60]: the logP is 4.18.

On to `CC(c1ccccc1NC(=O)C1=C(C(F)(F)F)OCCS1)C1CCCCC1` (stereo not drawn) [Example 49], for which the logP is listed as 4.31.

Consider `CC1COC(C(F)(F)F)=C(C(=O)Nc2ccccc2-c2ccc(Cl)c(Cl)c2)S1` (stereo not drawn) [Example 6], for which the logP was 4.26.

In the case of `O=C(Nc1cc(F)ccc1-c1cc(F)cc(F)c1)C1=C(C(F)(F)F)OCCS1` [Example 75], the lipophilicity (logP) is on record as 3.70.

The compound `CCCCCCc1ccccc1NC(=O)C1=C(C(F)(F)F)OCCS1` [Example 76] gave a log partition coefficient (logP) of 4.25.

Turning to `CC1COC(C(F)(F)F)=C(C(=O)Nc2ccccc2-c2ccc(C(F)(F)F)cc2)S1` (stereo not drawn) [Example 9], the logP came out at 4.06.

Compound `CCCC(CC(C)C)c1ccccc1NC(=O)C1=C(C(F)(F)F)OCCS1` (stereo not drawn) [Example 87] gave a logP of 4.65.

`CC(CC1CCCCC1)c1ccccc1NC(=O)C1=C(C(F)(F)F)OCCS1` (stereo not drawn) [Example 31]: the log partition coefficient (logP) is 4.71.

Consider `CC(CC1CC1(Cl)Cl)c1ccccc1NC(=O)C(C)(C)C` (stereo not drawn) [III-4a, N-{2-[2-(2,2-dichlorocyclopropyl)-1-methylethyl]-phenyl}-2,2-dimethylpropionamide], for which, under “read-out: logP (pH 2.3)”, the chromatographic logP is 3.77.

On to `O=C(Nc1ccccc1-c1cc(F)cc(Cl)c1)C1=C(C(F)(F)F)OCCS1` [Example 44], for which the log partition coefficient (logP) was found to be 3.60.

In turn, `N#Cc1ccc(-c2ccccc2NC(=O)C2=C(C(F)(F)F)OCCS2)cc1` [Example 78] showed a logP of 2.87.

Take `CCCC(CC)c1ccccc1NC(=O)C1=C(C(F)(F)F)OCCS1` (stereo not drawn) [Example 77]: the logP came out at 4.07.

With `C=CCC(C)c1ccccc1NC(=O)C1=C(C(F)(F)F)OCCS1` (stereo not drawn) [Example 34], the lipophilicity (logP) was found to be 3.33.

Compound `CON=C(c1ccc(-c2ccccc2NC(=O)C2=C(C(F)(F)F)OCCS2)cc1)C(F)(F)F` [Example 100] had a lipophilicity (logP) of 2.53.

The compound `O=C(Nc1c(F)cccc1-c1cc(F)cc(F)c1)C1=C(C(F)(F)F)OCCS1` [Example 74] came in with a logP of 3.20.

`CC(C)(C)C#Cc1ccccc1NC(=O)C1=C(C(F)(F)F)OCCS1` [Example 97] had a logP of 4.42.

For `O=C(Nc1ccccc1-c1ccc(Cl)c(Cl)c1)C1=C(C(F)F)OCCS1` [Example 84], the log partition coefficient (logP) turned out to be 3.92.

As for `O=C(Nc1ccccc1-c1ccc(Cl)c(Cl)c1)C1=C(C(F)(F)F)OCCS1(=O)=O` [Example 93], the lipophilicity (logP) stood at 3.57.

`CC(CC1CC1)c1ccccc1NC(=O)C1=C(C(F)(F)F)OCCS1` (stereo not drawn) [Example 96] had a lipophilicity (logP) of 3.72.

Regarding `Cc1cc(Cl)ccc1-c1ccccc1NC(=O)C1=C(C(F)(F)F)OCCS1(=O)=O` [Example 92], the logP was found to be 3.66.

With `CC1CSC(C(=O)Nc2ccccc2C(C)CC(C)(C)C)=C(C(F)(F)F)O1` (stereo not drawn) [Example 66], the logP was found to be 4.51.

Compound `CCCC(C)c1cc(F)ccc1NC(=O)C1=C(C(F)(F)F)OCCS1` (stereo not drawn) [Example 52] showed a log partition coefficient (logP) of 3.67.

`O=C(Nc1ccccc1-c1ccc(Cl)c(F)c1)C1=C(C(F)(F)F)OCCS1(=O)=O` [Example 95]: the log partition coefficient (logP) is 3.28.

As to `Cc1cc(-c2ccccc2NC(=O)C2=C(C(F)(F)F)OCCS2)ccc1Br` [Example 98], the logP stood at 4.06.

Regarding `CC1CSC(C(=O)Nc2ccccc2-c2ccc(C(F)(F)F)cc2)=C(C(F)(F)F)O1` (stereo not drawn) [Example 61], the logP amounted to 4.08.

In turn, `CC1CSC(C(=O)Nc2ccccc2C2CC3CCC2C3)=C(C(F)(F)F)O1` (stereo not drawn) [Example 59] yielded a lipophilicity (logP) of 5.36.

Take `CCC(C)CC(C)c1ccccc1NC(=O)C1=C(C(F)(F)F)OCCS1` (stereo not drawn) [Example 54]: the log partition coefficient (logP) stood at 4.25.

As to `CCCCCC(C)c1ccccc1NC(=O)C1=C(C(F)(F)F)OCCS1` (stereo not drawn) [Example 48], the lipophilicity (logP) was determined as 4.34.

`CC(C)CC(C)c1ccccc1NC(=O)C1=C(C(F)(F)F)OCCS1(=O)=O` (stereo not drawn) [Example 90] registered a log partition coefficient (logP) of 3.53.

The compound `CC(C)CC(C)c1ccccc1NC(=O)C1=C(C(F)(F)F)OC(C)CS1` (stereo not drawn) [Example 63] returned a logP of 4.27.

For `CC(C)ON=Cc1ccc(-c2ccccc2NC(=O)C2=C(C(F)(F)F)OCC(C)S2)cc1` (stereo not drawn) [Example 8], the logP was found to be 4.57.

`CCC(C)(C)CC(C)c1ccccc1NC(=O)C1=C(C(F)(F)F)OCCS1` (stereo not drawn) [Example 58] showed a lipophilicity (logP) of 4.48.

`O=C(Nc1ccccc1C1CCCCC1)C1=C(C(F)(F)F)OCCS1` [Example 28] had a logP of 3.69.

With `O=C(Nc1ccccc1-c1ccc(Cl)c(Cl)c1)C1=C(C2CC2)OCCS1` [Example 80], the log partition coefficient (logP) turned out to be 3.53.

Turning to `Cc1ccc(-c2ccccc2NC(=O)C2=C(C(F)(F)F)OCCS2)cc1F` [Example 36], the log partition coefficient (logP) is given as 3.62.

On to `Cc1cc(-c2ccccc2NC(=O)C2=C(C(F)(F)F)OC(C)CS2)ccc1F` (stereo not drawn) [Example 70], for which the lipophilicity (logP) is on record as 3.99.

As to `O=C(Nc1ccccc1-c1ccc(Br)cc1)C1=C(C(F)(F)F)OCCS1(=O)=O` [Example 91], the lipophilicity (logP) worked out at 3.35.

Compound `CCCON=Cc1ccc(-c2ccccc2NC(=O)C2=C(C(F)(F)F)OCCS2)cc1F` [Example 25] returned a log partition coefficient (logP) of 4.42.

The logP is the decadic logarithm of the partition coefficient of the neutral form, usually between octanol and water. Lower therefore signals lower lipophilicity.
